Measurements taken from patent US20180243325A1, “METHOD FOR INHIBITING ABSORPTION OF AND/OR PROMOTING EXCRETION OF LIPIDS USING D-PSICOSE” (CJ CHEILJEDANG CORPORATION, priority 2015, published 2018).

What was measured:
Assay type in all cases: in vivo, C57BL/6J mice
[1] = system: ApoB48 (apolipoprotein B 48, 238055); experiment: Small intestine mRNA expression, real-time quantitative PCR: ApoB48; settings: FIG. 8, HFD+5% w/w in diet, 16 weeks
Description: (§1) First, 4-week-old male C57BL/6J mice (60 total) were purchased from Jackson Laboratory. The animals were acclimated to the vivarium in a thermo-hygrostat (20-23° C., 45-65%) under a 12 h light/dark cycle and fed a pelletized commercial non-purified diet for 1 week after arrival. The mice were then randomly divided into 6 groups (n=10) and fed the respective experimental diets for 16 weeks: normal diet group (ND, American Institute of Nutrition (AIN)-76 semi-synthetic diet), high-fat diet group (HFD, 20% fat+1% cholesterol based on AIN-76 diet), PSI group (HFD+5% D-psicose, w/w, Sigma Chemical Company), ERY group (HFD+5% erythritol, w/w, Sigma Chemical Company), GLU group (HFD+5% D-glucose, w/w, Sigma Chemical Company), and FRU group (HFD+5% D-fructose, w/w, Sigma Chemical Company). All high-fat diet-fed groups were allowed to ingest the same calories by pair feeding based on the PSI group. The mice had ad libitum access to distilled water during the experimental period. Their feed intakes and body weights were measured daily and biweekly, respectively. The organ weights and the adipose tissue weights of the mice were measured after sacrificing the animals.
Samples were prepared and analyzed as previously described. Specifically, total RNA was synthesized into cDNA using a QuantiTect Reverse Transcription kit (QIAGEN Gmb1h, Hilden, Germany). RNA expression was quantified with real-time quantitative PCR using a QuantiTect SYBR Green PCR kit (QIAGEN Gmb1h, Hilden, Germany). Primers were designed to detect CD36 (cluster of differentiation 36, 12491), ApoB48 (apolipoprotein B 48, 238055), FATP4 (fatty acid transporter 4, 26569), ABCG5 (ATP-binding cassette sub-family G member5, 27409), and ABCG8 (ATP-binding cassette sub-family G member8, 67470). GAPDH was used as an internal transcription marker. The reaction was performed a total of 40 cycles (each consisting of 15 sec at 94° C., 30 sec at 58° C., 30 sec at 72° C., and 15 sec at 65° C.). Fluorescence signals were monitored every cycle and the resulting threshold cycles (Ct) were analyzed. mRNA expression in each experimental group was quantified using a CFX96 Real time system (Bio-rad, USA).

[2] = system: high-fat diet-induced obese mice; experiment: Plasma lipid profiles of high-fat diet-induced obese mice; settings: HFD+5% w/w in diet, 16 weeks
Description: as §1, with “animals. Plasma free fatty acid, phospholipid, apolipoprotein A-I (Apo A-I), and apolipoprotein B (ApoB B) levels were measured using Nittobo enzymatic kits (Nittobo medical Co., Tokyo, Japan). Plasma HDL-cholesterol, triglyceride (TG), and total cholesterol (total-C) levels were measured using Asan enzymatic kits (Asan, Seoul, South Korea).” for “animals.”

[3] = system: high-fat diet-induced obese mice; experiment: Hepatic lipid profiles; settings: FIG. 4A, HFD+5% w/w in diet, 16 weeks
Description: as §1
Hepatic lipids were extracted from mice in the normal diet group (ND) and high-fat diet groups (HFD, ERY, GLU, FRU, and PSI) and dried. Then, each of the dried hepatic lipid extracts was dissolved in 1 ml of ethanol. 200 μl of the lipid solution was emulsified in a solution of Triton X-100 and sodium cholate in distilled water. Hepatic fatty acid, triglyceride, and cholesterol levels were analyzed using the same enzymatic kits as those used in Example 2.

[4] = system: fatty acid synthase (FAS); experiment: FAS activity in epididymal white adipose tissue; settings: FIG. 5A, HFD+5% w/w in diet, 16 weeks
Description: as §1, with “animals. Samples were prepared and analyzed according to the method developed by Hulcher and Oleson. Specifically, the activity of fatty acid synthase (FAS) as a lipid regulating enzyme of epididymal white adipose tissue was measured by spectrophotometric assay according to the method described by Nepokroeff et al. Each sample was mixed with 100 μl of cytoplasmic fraction and the mixture was allowed to react at 30° C. for 2 min. A reduction in absorbance at 340 nm was measured. FAS activity units were expressed as nanomoles (nmol) of NADPH oxidized for 1 min per mg of cytoplasmic fraction. Fatty acid β-oxidation activity was measured by monitoring the reduction of NAD^+ to NADH in the presence of palmitoyl-CoA, as described by Lazarow. β-oxidation activity units were expressed as nanomoles (nmol) of NADH produced for 1 min per mg of mitochondrial protein.” for “animals.”

SMILES | mRNA expression level of ApoB48 in the small intestine [1] | AI, atherogenic index, [(Total C) − HDL-C)]/HDL-C [2] | APO-A I/APO-B [2] | ApoA-I [2] [mg/dL] | ApoB [2] [mg/dL] | FFA (plasma free fatty acid) [2] [mmol/L] | HDL-C [2] [mmol/L] | HTR, (HDL-C/Total-C) × 100 [2] | PL (plasma phospholipid) [2] [mg/dL] | TG (plasma triglyceride) [2] [mmol/L] | Total-C (plasma total cholesterol) [2] [mmol/L] | nonHDL-C [2] [mmol/L] | hepatic cholesterol level [3] | hepatic fatty acid level [3] | hepatic triglyceride level [3] | FAS activity in adipose tissue [4] | mRNA expression level of ApoB48 in the small intestine ([1]; listed as D-psicose)
O=C(CO)[C@@H](O)[C@H](O)[C@H](O)CO [FRU, D-fructose] | significantly higher | 4.55 | 2.77 | 27.69 | 9.96 | 0.48 | 0.83 | 20.62 | 115.27 | 1.17 | 4.14 | 3.32 | significantly higher than those in the ND group | significantly higher than those in the ND group | significantly higher than those in the ND group | increased significantly compared to those in the ND group | –
O=C[C@H](O)[C@@H](O)[C@H](O)[C@H](O)CO [GLU, D-glucose] | significantly higher | 3.76 | 2.92 | 27.23 | 9.32 | 0.49 | 0.82 | 20.19 | 104.86 | 1.28 | 4.07 | 3.25 | significantly higher than those in the ND group | significantly higher than those in the ND group | significantly higher than those in the ND group | increased significantly compared to those in the ND group | –
OC[C@@H](O)[C@@H](O)CO [ERY, erythritol] | significantly higher | 3.55 | 3.16 | 27.28 | 8.61 | 0.53 | 1.22 | 23.95 | 135.46 | 1.25 | 5.35 | 4.36 | significantly higher than those in the ND group | significantly higher than those in the ND group | significantly higher than those in the ND group | increased significantly compared to those in the ND group | –
O=C(CO)[C@H](O)[C@H](O)[C@H](O)CO [PSI, D-psicose] | significantly lower in the PSI group than those in other high-fat diet groups | – | 3.80 | – | – | – | – | 42.98 | 107.23 | – | – | – | decreased significantly compared to those in other high-fat diet groups | decreased significantly compared to those in other high-fat diet groups | decreased significantly compared to those in other high-fat diet groups | decreased significantly compared to those in other high-fat diet groups | reduces mRNA expression
